The values that follow come from paper PMC11374953, “Heteroaryl derivatives of suvorexant as OX1R selective PET ligand candidates: Cu-mediated ^18F-fluorination of boroxines, in vitro and initial in vivo evaluation” (EJNMMI Research, 2024).

For one series, the target named is T1, human OX1R (Homo sapiens, UniProt O43613).
T1 construct: host or cells: HEK293T
T1 sequence (O43613 1-425): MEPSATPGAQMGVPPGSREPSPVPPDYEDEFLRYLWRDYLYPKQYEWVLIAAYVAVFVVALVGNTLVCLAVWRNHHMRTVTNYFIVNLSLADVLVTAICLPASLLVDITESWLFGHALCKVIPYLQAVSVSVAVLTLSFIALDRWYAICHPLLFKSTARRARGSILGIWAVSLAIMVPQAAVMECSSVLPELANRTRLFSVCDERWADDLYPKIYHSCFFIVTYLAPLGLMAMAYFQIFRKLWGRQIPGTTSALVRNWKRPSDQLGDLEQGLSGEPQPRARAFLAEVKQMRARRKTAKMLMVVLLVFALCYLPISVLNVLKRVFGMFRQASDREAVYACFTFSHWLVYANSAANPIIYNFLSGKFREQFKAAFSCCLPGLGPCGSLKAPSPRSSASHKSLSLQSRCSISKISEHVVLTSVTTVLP
The series is described as follows: Radioligand displacement binding, human OX1R (HEK293T membranes). Conditions: for OX1R selectivity Ki(hOX2R)/Ki(hOX1R): Ki for OX2R divided by Ki for OX1R; for Ki: mean ± SEM, at least three experiments in triplicate, HEK293T membranes, radioligand [^3H]SB974042, read-out: Ki values (nM ± SEM) hOX1R. The protocol: (§1) In comparison with the lead JH112, receptor binding affinities of the test compounds 1a–f have been determined by radioligand displacement studies, as described previously, applying membranes of HEK293T cells transiently expressing the human OX1R or OX2R (Table 1).
Binding affinities to the human orexin receptor subtypes OX1R and OX2R were determined as reported. Membranes were prepared from HEK293T cells transiently transfected with the cDNA for the receptor (OX1R: human HCRTR1 from cDNA Resource Center, Bloomsburg University, Bloomsberg, PA; OX2R: human HCRTR2 from Genscript, Piscataway, NJ). […] Competition binding experiments were conducted in binding buffer (50 mM Tris, 5 mM MgCl2, 0.1 mM EDTA, 5 µg/mL bacitracin and 5 µg/mL soybean trypsin inhibitor at pH 7.4) at final protein concentrations of 4 µg/well (OX1R) and 3 µg/well ([…]) or the OX2R radioligand [^3H]EMPA (specific activity: 84 Ci/mmol) both at a final concentration of 0.7 nM (both purchased from Novandi, Södertälje, Sweden) and varying concentrations of the competing test compounds. Radioactivity was separated by filtration on GF/B glass fiber mats and counted with a scintillation counter (Microbeta from PerkinElmer, Rodgau, Germany). […] The protein concentration was determined applying the method of Lowry. Competition curves were analyzed by nonlinear regression using the algorithms implemented in PRISM 10.2 (GraphPad Software, San Diego, CA) to get IC50 values, which were subsequently transformed into the Ki values employing the equation of Cheng and Prusoff.
Background: Displacement assays read how much labelled ligand stays bound in the presence of the test substance.

The target of the next series is T2, human OX2R (Homo sapiens, UniProt O43614).
T2 construct: host or cells: HEK293T
T2 sequence (O43614 1-444): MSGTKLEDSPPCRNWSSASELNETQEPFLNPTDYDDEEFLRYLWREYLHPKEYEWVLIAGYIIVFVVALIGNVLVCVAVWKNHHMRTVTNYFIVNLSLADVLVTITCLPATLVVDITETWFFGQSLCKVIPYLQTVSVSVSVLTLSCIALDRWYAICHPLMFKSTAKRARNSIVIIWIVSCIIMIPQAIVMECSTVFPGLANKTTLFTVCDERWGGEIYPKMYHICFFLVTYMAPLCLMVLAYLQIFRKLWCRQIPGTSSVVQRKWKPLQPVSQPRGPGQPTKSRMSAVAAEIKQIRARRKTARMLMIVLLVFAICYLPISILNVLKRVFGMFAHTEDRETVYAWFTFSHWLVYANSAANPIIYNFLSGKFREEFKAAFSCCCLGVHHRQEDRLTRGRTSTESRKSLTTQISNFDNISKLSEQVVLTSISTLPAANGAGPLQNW
The series is described as follows: Radioligand displacement binding, human OX2R (HEK293T membranes). Conditions: mean ± SEM, at least three experiments in triplicate; HEK293T homogenates, radioligand [^3H]EMPA; read-out: Ki values (nM ± SEM) hOX2R. The protocol:
as §1
Binding affinities to the human orexin receptor subtypes OX1R and OX2R were determined as reported. Membranes were prepared from HEK293T cells transiently transfected with the cDNA for the receptor (OX1R: human HCRTR1 from cDNA Resource Center, Bloomsburg University, Bloomsberg, PA; OX2R: human HCRTR2 from Genscript, Piscataway, NJ). […] Competition binding experiments were conducted in binding buffer (50 mM Tris, 5 mM MgCl2, 0.1 mM EDTA, 5 µg/mL bacitracin and 5 µg/mL soybean trypsin inhibitor at pH 7.4) at final protein concentrations of 4 µg/well (OX1R) and 3 µg/well (OX2R) when incubating the OX1R specific radioligand [^3H]SB674042 (specific activity: 43 Ci/mmol) or the OX2R radioligand [^3H]EMPA (specific activity: 84 Ci/mmol) both at a final concentration of 0.7 nM (both purchased from Novandi, Södertälje, Sweden) and varying concentrations of the competing test compounds. Radioactivity was separated by filtration on GF/B glass fiber mats and counted with a scintillation counter (Microbeta from PerkinElmer, Rodgau, Germany). Non-specific binding was determined with 10 µM of SB674042 or EMPA. The protein concentration was determined applying the method of Lowry. Competition curves were analyzed by nonlinear regression using the algorithms implemented in PRISM 10.2 (GraphPad Software, San Diego, CA) to get IC50 values, which were subsequently transformed into the Ki values employing the equation of Cheng and Prusoff.

The target in a further series is P-gp (Homo sapiens, UniProt P08183). As to the kind of experiment: Basolateral-to-apical transport in Caco-2 monolayers with and without the P-gp inhibitor zosuquidar. Conditions: for P-gp substrate assessment: Caco-2 monolayer model with zosuquidar; for effect of P-gp inhibitor zosuquidar (ZSQ) on basolateral-to-apical transport / passive permeability (transcellular passive diffusion): Caco-2 monolayers, 4 h; for effect of P-gp inhibitor zosuquidar (ZSQ) on basolateral-to-apical transport: 5 µM compound, 1 µM ZSQ, n = 8; for passive permeability (transcellular passive diffusion): 5 µM, compared with digoxin. Background: Caco-2 cells form a polarised layer with tight junctions and transporters.

Structures are written as SMILES. “And” between values parts separate entries of the source, which are not always exact repeats. Equal entries are not always repeated. “Also recorded” adds a separate entry of the source.

Chain of P-gp (P08183 whole entry, the tested form may be a part): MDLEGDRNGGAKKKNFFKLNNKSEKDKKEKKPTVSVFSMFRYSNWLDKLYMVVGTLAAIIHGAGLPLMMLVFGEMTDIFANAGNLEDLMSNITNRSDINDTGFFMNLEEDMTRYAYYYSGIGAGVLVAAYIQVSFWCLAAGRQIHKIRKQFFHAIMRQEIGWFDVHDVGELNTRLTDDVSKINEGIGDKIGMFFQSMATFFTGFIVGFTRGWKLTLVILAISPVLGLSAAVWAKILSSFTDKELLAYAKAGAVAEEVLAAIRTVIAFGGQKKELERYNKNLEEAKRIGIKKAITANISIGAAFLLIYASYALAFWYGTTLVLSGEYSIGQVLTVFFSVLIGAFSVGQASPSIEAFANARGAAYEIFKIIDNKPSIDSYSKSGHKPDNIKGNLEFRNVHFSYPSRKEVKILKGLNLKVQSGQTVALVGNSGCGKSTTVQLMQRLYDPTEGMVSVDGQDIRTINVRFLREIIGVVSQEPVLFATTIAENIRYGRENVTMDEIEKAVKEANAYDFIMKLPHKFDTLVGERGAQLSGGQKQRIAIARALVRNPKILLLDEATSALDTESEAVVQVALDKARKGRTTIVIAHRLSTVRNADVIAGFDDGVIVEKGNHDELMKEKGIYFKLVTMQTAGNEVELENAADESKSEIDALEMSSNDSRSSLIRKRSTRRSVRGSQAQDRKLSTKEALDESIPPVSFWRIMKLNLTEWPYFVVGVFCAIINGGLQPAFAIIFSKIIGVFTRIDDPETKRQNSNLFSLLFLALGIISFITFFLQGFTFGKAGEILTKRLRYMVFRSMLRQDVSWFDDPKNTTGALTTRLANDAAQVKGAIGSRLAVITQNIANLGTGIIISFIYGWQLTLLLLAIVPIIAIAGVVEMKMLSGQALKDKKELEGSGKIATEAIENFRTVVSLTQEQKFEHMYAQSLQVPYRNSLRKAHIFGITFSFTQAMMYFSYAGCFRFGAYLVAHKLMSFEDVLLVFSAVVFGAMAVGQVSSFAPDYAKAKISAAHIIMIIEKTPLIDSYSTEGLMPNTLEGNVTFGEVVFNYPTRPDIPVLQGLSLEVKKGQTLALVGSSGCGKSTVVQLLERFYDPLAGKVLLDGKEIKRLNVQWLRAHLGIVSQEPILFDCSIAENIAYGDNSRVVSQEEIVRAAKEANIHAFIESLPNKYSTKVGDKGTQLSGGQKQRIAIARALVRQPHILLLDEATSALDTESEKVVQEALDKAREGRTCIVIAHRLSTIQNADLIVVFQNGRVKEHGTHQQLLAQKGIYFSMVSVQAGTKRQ
Protocol for P-gp: Amounts being present after 4 h in the apical compartment are shown in % of the amount administered to the basal side.
In order to characterize compounds as substrates of P-gp, monolayers of Caco-2 cells were used in line with previous studies [53]. In brief, transport from the basolateral to apical compartment was determined after 4 h in the absence or presence of the P-gp inhibitor zosuquidar (Biomol GmbH, Hamburg, Germany). […] Zosuquidar was administered in a concentration of 1 µM to the basal and apical compartments. Results are expressed in % of the amount administered to the basolateral compartment at the beginning of the experiment. The P-gp substrate digoxin (obtained in tritium-labeled form from ARC, St. Louis, USA and in unlabeled form from Merck KGaA, Darmstadt, Germany) was used as positive control. Monolayer integrity was checked routinely using tritium-labeled inulin (obtained from ARC, St. Louis, USA). […] LC–MS analyses were performed using an ultra-high-performance liquid chromatography (UPLC) (Ultimate 3000, Thermo Fisher Scientific) coupled to a high-resolution mass spectrometer (QExactive Orbitrap Focus, Thermo Fisher Scientific). The analytical column was an Acquity UPLC BEH C18, 1.7 µm, 2.1 × 100 mm column (Waters GmbH) and 80% methanol with 0.1% formic acid was used as mobile phase during an isocratic elution for 5 min at a flow rate of 0.35 mL/min. For sample preparation, 200 µL cell culture supernatant were mixed with 600 µL methanol including 50 ng/mL clopidogrel-d3 as an internal standard. Samples were centrifuged, the solvent of 600 µL supernatant was evaporated to dryness and 100 µL mobile phase was used for reconstitution. The injection volume was 5 µL. All experiments were performed with eight biological replicates. Unpaired t-test was used for analyzing differences with p-values < 0.05 considered significant.

As to `Cc1ccc(-n2nccn2)c(C(=O)N2CCCN(c3nc4cc(F)ccc4o3)CC2)c1` [1a], the “OX1R selectivity Ki(hOX2R)/Ki(hOX1R)” value on human OX1R is listed as 1.0. Besides, the Ki (commonly a measure of affinity in units of concentration, obtained from inhibition or displacement) at human OX1R was found to be 2.5 ± 0.62 nM; on human OX2R, 2.5 ± 0.36 nM.

Turning to `CC[C@H](C)[C@H]1CN(c2nc3ccc(F)cc3s2)CCCN1C(=O)c1cc(C)ccc1-n1nccn1` [1f], at human OX1R, the “OX1R selectivity Ki(hOX2R)/Ki(hOX1R)” value is 77 and the Ki came to 0.69 ± 0.26 nM. In addition, on human OX2R, the inhibitory constant (Ki) was determined as 53 ± 7.8 nM. In addition, at P-gp, the P-gp substrate assessment result is “not efficient P-gp substrates”, the “effect of P-gp inhibitor zosuquidar (ZSQ) on basolateral-to-apical transport” value (“effect of P-gp inhibitor zosuquidar” below) is on record as “no effect; also recorded: did not significantly reduce” and the “passive permeability (transcellular passive diffusion)” value (shortened to “passive permeability”) is “similarly high as with digoxin”.

Take `CC[C@H](C)[C@H]1CN(c2nc3cc(F)ccc3o2)CCCN1C(=O)c1cc(C)ccc1-n1nccn1` [1e]: at human OX1R, the “OX1R selectivity Ki(hOX2R)/Ki(hOX1R)” value was 77 and the Ki worked out at 1.2 ± 0.28 nM. On human OX1R (fluorine for chlorine replacement), the “decrease of OX1R affinity compared to JH112 (factor)” value was found to be 1.6. Besides, the Ki at human OX2R stood at 92 ± 14 nM.

Regarding `Cc1ccc(-n2nccn2)c(C(=O)N2CCCN(c3nc4cc(F)ccc4s3)CC2)c1` [1b], at human OX1R, the “OX1R selectivity Ki(hOX2R)/Ki(hOX1R)” value is given as 1.3 and the Ki came to 1.9 ± 0.42 nM. Moreover, at human OX2R, the Ki came out at 2.4 ± 0.49 nM. Besides, at P-gp, the “effect of P-gp inhibitor zosuquidar” value was “did not significantly reduce” and the “passive permeability” value is reported as “greater than that of digoxin”.

Regarding `Cc1ccc(-n2nccn2)c(C(=O)N2CCCN(c3cnc4cc(F)ccc4n3)CC2)c1` [1d], on human OX1R, the “OX1R selectivity Ki(hOX2R)/Ki(hOX1R)” value amounted to 0.7 and the Ki was found to be 1.2 ± 0.4 nM. In addition, the Ki on human OX2R is 0.8 nM and 0.83 nM. For the same molecule, at P-gp, the “effect of P-gp inhibitor zosuquidar” value is recorded as “did not significantly reduce” and the “passive permeability” value is “greater than that of digoxin”.

On to `Cc1ccc(-n2nccn2)c(C(=O)N2CCCN(c3nc4ccc(F)cc4s3)CC2)c1` [1c], for which, at human OX1R, the “OX1R selectivity Ki(hOX2R)/Ki(hOX1R)” value turned out to be 1.2 and the Ki came to 0.99 ± 0.25 nM. The Ki on human OX2R worked out at 1.2 ± 0.2 nM. Besides, at P-gp, the P-gp substrate assessment entry is “not efficient P-gp substrates”; the “effect of P-gp inhibitor zosuquidar” value is recorded as “only moderately inhibited; also recorded: very modest, yet significant, effect”; the “passive permeability” value is “greater than that of digoxin”.
